Experimental data reported in patent US4877785A, “Non-peptidyl beta-succinamidoacyl aminodiols as anti-hypertensive agents” (G. D. Searle & Co., priority 1987, dated 1989).
Where a SMILES comes first, the peptide text is derived from it. [ ]: non-standard residue; d: D form. The star is where a group is joined. Sta = CC(C)C[C@H](N)[C@@H](O)CC(=O)O; Isovaleryl = CC(C)CC(=O)*

Assays:
Human renin = target: T1, Human renin (Homo sapiens, UniProt P00797); test: human renin inhibition test in vitro (angiotensin I determined by radioimmunoassay); assay type: biochemical; conditions: pH 7.4, 37° C., two hours, human plasma
T1 construct: purchased National Institute for Biological Standards, London
T1 sequence (P00797 67-406): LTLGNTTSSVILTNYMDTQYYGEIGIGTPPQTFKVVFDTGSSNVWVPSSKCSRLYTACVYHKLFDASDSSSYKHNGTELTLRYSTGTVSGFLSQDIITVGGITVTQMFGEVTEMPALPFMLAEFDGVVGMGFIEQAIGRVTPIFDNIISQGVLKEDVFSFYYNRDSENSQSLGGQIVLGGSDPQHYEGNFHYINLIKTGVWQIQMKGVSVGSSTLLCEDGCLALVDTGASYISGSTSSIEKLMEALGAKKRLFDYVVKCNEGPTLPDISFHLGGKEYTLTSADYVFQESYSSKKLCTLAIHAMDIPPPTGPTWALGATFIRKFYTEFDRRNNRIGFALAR
Procedure: Compounds of Formula I were evaluated as inhibitors of human renin in an in vitro assay, as follows: This human renin inhibition test has been previously described in detail [Papaioannou, et al., Clinical and Experimental Hypertension, A7(9), 1243-1257 (1985)]. Human renin was obtained from the National Institute for Biological Standards, London. In a total volume of 0.25 mL 100 mM Tris-acetate buffer at pH 7.4, 25×10^-6 Goldblatt units of renin, 0.05 mL of plasma from human volunteers taking oral contraceptives, 6.0 mM sodium EDTA, 2.4 mM phenylmethyl sulfonyl fluoride, 1.5 mM 8-hydroxyquinoline, 0.4 mg/mL BSA, and 0.024 mg/mL neomycin sulfate were incubated for two hours at 37° C. in the presence or absence of renin inhibitors. The produced angiotensin I was determined by radioimmunoassay (New England Nuclear kit). Compounds of formula I to be assayed were solubilized in either ethyl alcohol or DMSO and diluted with 100 mM Tris-acetate buffer at pH 7.4 to the appropriate concentration. The final concentration of organic solvent in the reaction mixture was less than 1%. Control incubations at 37° C. were used to correct for effects of organic solvent on renin activity.

renin = conditions: cited from earlier work
pepsin = conditions: cited from earlier work
cathepsin D = conditions: cited from earlier work
hog renin = conditions: after injection of hog renin into nephrectomized rats; cited from earlier work

CC(C)C[C@H](O)[C@H](O)[C@H](CC1CCCCC1)NC(=O)C(C)CNC(=O)C(CC(=O)N1CCOCC1)Cc1cccc2ccccc12 (single isomer, unassigned; isomer a) [Example 11]
IC50 (Human renin): 330 nM

CC(C)C[C@H](O)[C@H](O)[C@H](CC1CCCCC1)NC(=O)C(C)CNC(=O)C(CC(=O)N1CCOCC1)Cc1cccc2ccccc12 (single isomer, unassigned; isomer b) [Example 13]
IC50 (Human renin): 1000 nM

CC(C)CC(=O)N[C@H](C(=O)N[C@H](C(=O)N[C@@H](CC(C)C)[C@@H](O)CC(=O)N[C@@H](C)C(=O)N[C@@H](CC(C)C)[C@@H](O)CC(=O)O)C(C)C)C(C)C [pepstatin] (Isovaleryl-VV[Sta]A[Sta]-OH)
inhibition of renin (renin): inhibitor | inhibition of pepsin (pepsin): inhibitor | inhibition of cathepsin D (cathepsin D): inhibitor | reduction of blood pressure in vivo (hog renin): found to reduce blood pressure in vivo
